# Activity calls are given as the source filed them. The rule behind the calls is not given here.
# Assays:
# Staphylococcus aureus [1] = assay: Antibacterial activity against vancomycin-resistant Staphylococcus aureus VRS3 harboring GyrA S84L and GrlA S80F, E84K mutant after 24 hrs by CLSI method; format: functional; settings: VRS3, 24 h
# Staphylococcus aureus [2] = assay: Antibacterial activity against vancomycin-intermediate Staphylococcus aureus Mu50 harboring GyrA S84L and GrlA S80F mutant after 24 hrs by CLSI method; format: functional; settings: Mu50, 24 h
# Staphylococcus aureus [3] = assay: Antibacterial activity against vancomycin-resistant Staphylococcus aureus VRS2 harboring GyrA S84L and GrlA S80F mutant after 24 hrs by CLSI method; format: functional; settings: VRS2, 24 h
# Staphylococcus aureus [4] = assay: Antibacterial activity against community acquired methicillin-resistant Staphylococcus aureus after 24 hrs by CLSI method; format: functional
# Staphylococcus aureus [5] = assay: Antibacterial activity against vancomycin-resistant Staphylococcus aureus VRS1 harboring GyrA S84L and GrlA S80F mutant after 24 hrs by CLSI method; format: functional; settings: VRS1, 24 h
# Staphylococcus aureus [6] = assay: Antibacterial activity against hospital acquired methicillin-resistant Staphylococcus aureus after 24 hrs by CLSI method; format: functional
# Staphylococcus aureus [7] = assay: Antibacterial activity against quinolone-resistant Staphylococcus aureus after 24 hrs by CLSI method; format: functional
# Staphylococcus aureus [8] = assay: Antibacterial activity against vancomycin-resistant Staphylococcus aureus VRS6 harboring GyrA S84L and GrlA S80F, E84G mutant after 24 hrs by CLSI method; format: functional; settings: VRS6, 24 h
# Staphylococcus aureus [9] = assay: Antibacterial activity against vancomycin-intermediate Staphylococcus aureus after 24 hrs by CLSI method; format: functional
# Staphylococcus aureus [10] = assay: Antibacterial activity against Staphylococcus aureus after 24 hrs by CLSI method; format: functional
# Staphylococcus aureus [11] = assay: Antibacterial activity against methicillin-susceptible Staphylococcus aureus after 24 hrs by CLSI method; format: functional
# Staphylococcus aureus [12] = assay: Antibacterial activity against vancomycin-resistant Staphylococcus aureus VRS5 harboring GyrA S84L, E88K and GrlA S80Y, E84G mutant after 24 hrs by CLSI method; settings: VRS5, 24 h
# Staphylococcus aureus [13] = assay: microbe, parasite or virus in culture; settings: Mu3, 24 h
# Description: Antibacterial activity against vancomycin-intermediate Staphylococcus aureus Mu3 harboring GyrA S84L and GrlA S80F mutant after 24 hrs by CLSI method
# [14] = AUC in human at 800 mg, iv qd after 24 hrs; format: ADME, organism-based; set-up: dose 800 mg, time < 24 hr, route intravenous; settings: plasma
# Staphylococcus aureus [15] = assay: Antibacterial activity against vancomycin-resistant Staphylococcus aureus VRS4 harboring GyrA S84L and GrlA S80F, E84K mutant after 24 hrs by CLSI method; format: functional, organism-based
# Staphylococcus aureus [16] = assay: microbe, parasite or virus in culture; settings: Staphylococcus aureus, 34, 24 h
# Description: Antibacterial activity against vancomycin-susceptible methicillin-resistant Staphylococcus aureus 34 harboring GyrA S84L and GrlA S80F mutant after 24 hrs by CLSI method
# Staphylococcus aureus [17] = assay: Antibacterial activity against vancomycin-resistant Staphylococcus aureus VRS7 harboring GyrA S84L and GrlA S80F mutant after 24 hrs by CLSI method; format: functional, organism-based
# Staphylococcus aureus [18] = assay: microbe, parasite or virus in culture; settings: Staphylococcus aureus, 32, 24 h
# Description: Antibacterial activity against vancomycin-susceptible methicillin-resistant Staphylococcus aureus 32 harboring GyrA S84L and GrlA S80Y mutant after 24 hrs by CLSI method
# [19] = Ratio of AUC in human to MIC for Staphylococcus aureus after 24 hrs; format: functional
Compound,MIC (Staphylococcus aureus [1]) [µg/mL],MIC (Staphylococcus aureus [2]) [µg/mL],MIC (Staphylococcus aureus [3]) [µg/mL],MIC50 (Staphylococcus aureus [4]) [µg/mL],MIC90 (Staphylococcus aureus [4]) [µg/mL],MIC (Staphylococcus aureus [5]) [µg/mL],MIC50 (Staphylococcus aureus [6]) [µg/mL],MIC90 (Staphylococcus aureus [6]) [µg/mL],MIC50 (Staphylococcus aureus [7]) [µg/mL],MIC90 (Staphylococcus aureus [7]) [µg/mL],MIC (Staphylococcus aureus [8]) [µg/mL],MIC50 (Staphylococcus aureus [9]) [µg/mL],MIC90 (Staphylococcus aureus [9]) [µg/mL],MIC50 (Staphylococcus aureus [10]) [µg/mL],MIC90 (Staphylococcus aureus [10]) [µg/mL],MIC50 (Staphylococcus aureus [11]) [µg/mL],MIC90 (Staphylococcus aureus [11]) [µg/mL],MIC (Staphylococcus aureus [12]) [µg/mL],further results
CN[C@H](CC(C)C)C(=O)N[C@H]1C(=O)N[C@@H](CC(N)=O)C(=O)N[C@H]2C(=O)N[C@H]3C(=O)N[C@H](C(=O)N[C@H](C(=O)O)c4cc(O)cc(O)c4-c4cc3ccc4O)[C@H](O)c3ccc(c(Cl)c3)Oc3cc2cc(c3O[C@@H]2O[C@H](CO)[C@@H](O)[C@H](O)[C@H]2O[C@H]2C[C@](C)(N)[C@H](O)[C@H](C)O2)Oc2ccc(cc2Cl)[C@H]1O [VANCOMYCIN],64,8,32,1,1,128,1,4,1,4,128,4,4,1,1,1,1,64,
C[C@H]1CCc2c(N3CCC(O)CC3)c(F)cc3c(=O)c(C(=O)O)cn1c23.N=C(N)NCCC[C@H](N)C(=O)O,0.5,1,0.5,0.03,0.5,0.5,0.5,1,0.5,1,0.5,0.25,0.5,0.03,1,0.03,0.25,8,MIC (Staphylococcus aureus [13]): 1 µg/mL; AUC at 24 h [14]: 390 µg·h/mL; Activity (Staphylococcus aureus [15]): Active; MIC (Staphylococcus aureus [16]): 0.5 µg/mL; Activity (Staphylococcus aureus [17]): Active; MIC (Staphylococcus aureus [18]): 0.5 µg/mL; RatioAUC/MIC [19]: 58.5

# Source: ChEMBL document CHEMBL1629623, “In vitro activity of the quinolone WCK 771 against recent U.S. hospital and community-acquired Staphylococcus aureus pathogens with various resistance types” (Antimicrob Agents Chemother, 2009)
